The results in this text go back to US20200023067A1, “DUAL-ACTION ELAFIBRANOR METFORMIN SALT FOR TREATING OBESITY ASSOCIATED WITH NON-ALCOHOLIC STEATOHEPATITIS (NASH) AND […]” (NASHPHARM, priority 2016, published 2020).

The structures appear in SMILES notation. ≈ marks a conversion by molar mass, not a printed value. Where “and” joins values, the source holds several entries; their conditions need not be identical. Equal values may be shown once. Read-outs that look alike come from different tables or passages of the source.

By solubility is commonly meant how much of the substance goes into solution per volume.

Common to all, as to assay type: physicochemical
A short description of data set [1]: Solubility test on the elafibranor (GFT505) metformin salt. The conditions noted are these: aqueous buffer, thermodynamic from solid. As for the experimental part:
The solubility kinetics is determined in an aqueous medium (water and pharmacopoeia buffers), at ambient temperature.

Data set [2] can be described thus: Thermodynamic solubility of elafibranor in aqueous buffers and cosolvents. To be noted: for solubility at 72 h / solubility at 24 h / solubility: 23 °C, thermodynamic from solid; for solubility at 72 h / solubility at 24 h: ambient temperature (22°-24° C.); for solubility at 72 h: read-out: Solubility after 72 hours; for solubility at 24 h: read-out: Solubility after 24 hours. As for the experimental part: The thermodynamic solubility of the basic elafibranor is studied over a period of 24 hours and 72 hours in various aqueous buffers in the presence or not of surfactants. Batch number EM0274L2 is used for this work. After 24 hours and 72 hours of incubation at ambient temperature (22°-24° C.), the solutions are sampled and then filtered over 0.2 μm polycarbonate filters in flasks for LCMS analyses, and diluting once in DMSO before stirring for 2 minutes (vortex or sonification).

Assay in data set [3]: as above
The conditions noted are these: for solubility at 24 h: read-out: Solubility after 24 hours.

Data set [4] in a line: Stability after exposure to light and temperature, by UPLC MS. The conditions noted are these: powder form or solution; daylight, ambient temperature; compared with the salt. As to the method:
The products were exposed to daylight and to ambient temperature.
The reference samples for their part are stored cool (2°-8° C.), protected from light by aluminum paper and under inert gas for the solid product.

Data set [5] in a line: Solubility test on the elafibranor (GFT505) metformin salt. To be noted: organic solvent or mixture, thermodynamic from solid, ambient temperature.
Where [6] appears, read: aqueous buffer, aqueous buffer, Buffer pH 4.6.
The mark [7] stands for this setting: aqueous buffer, aqueous buffer, Buffer pH 7.4.
Setting [8] is: aqueous buffer, aqueous buffer, Buffer pH 8.5.

On to `CSc1ccc(C(=O)/C=C/c2cc(C)c(OC(C)(C)C(=O)O)c(C)c2)cc1` [elafibranor, 2-[2,6 dimethyl-4-[3-[4-(methylthio)phenyl]-3-oxo-1(E)-propenyl]phenoxyl]-2-methylpropanoic acid], for which the solubility in data set [1] (Buffer pH 4.6, ambient temperature) was 114 µM and 44 µg/mL; in data set [1] (Buffer pH 7.4, ambient temperature) it was 504 µM and 194 µg/mL; in data set [1] (Buffer pH 8.5, ambient temperature) it was 4420 µM and 1700 µg/mL; in data set [2] (aqueous buffer, pH 4.6, aqueous buffer) it was 114 µM (≈ 43.8 µg/mL); in data set [2] (aqueous buffer, pH 8.5, aqueous buffer), 4420 µM (≈ 1700 µg/mL); in data set [5] (Polyethylene glycol 400), 39000 µM and 15000 µg/mL. Besides, in data set [5] (Propylene glycol), the solubility is 33500 µM and 12900 µg/mL. The solubility at 72 h is 35100 µM and 13500 µg/mL in data set [2] (organic solvent or mixture, Propylene glycol); 110 µM and 42 µg/mL in data set [2] (setting [6]); 609 µM and 234 µg/mL in data set [2] (setting [7]); 4270 µM and 1640 µg/mL in data set [2] (setting [8]); 41000 µM and 15800 µg/mL in data set [3] (23 °C, organic solvent or mixture, thermodynamic from solid, Polyethylene glycol 400, ambient temperature (22°-24° C.), read-out: Solubility after 72 hours). The solubility at 24 h in data set [2] (setting [6]) is 114 µM and 44 µg/mL; in data set [2] (setting [7]), 504 µM and 194 µg/mL; in data set [2] (setting [8]) it was 4420 µM and 1700 µg/mL; in data set [3] (23 °C, organic solvent or mixture, thermodynamic from solid, Polyethylene glycol 400, ambient temperature (22°-24° C.)), 39000 µM and 15000 µg/mL; in data set [3] (23 °C, organic solvent or mixture, thermodynamic from solid, Propylene glycol, ambient temperature (22°-24° C.)), 33500 µM and 12900 µg/mL. Moreover, in data set [2] (aqueous medium), the “Solubility in an aqueous medium” value was “low”. For the same molecule, the “Effect of cosolvent on solubility” value in data set [3] (addition of cosolvent such as propylene glycol or PEG 400) is “significantly improves the solubility”. In addition, the “Sensitivity to light (photosensitivity)” value in data set [4] is on record as “more sensitive to light”.
